Drawing on patent US11046691B1 (IDEAYA BIOSCIENCES, INC., priority 2018, dated 2021), this text covers IC50 for 35 compounds.

Molecules are shown by their SMILES.

Usually IC50 stands for the midpoint of a concentration-inhibition curve.

hMAT2A, sequence (P31153 whole entry): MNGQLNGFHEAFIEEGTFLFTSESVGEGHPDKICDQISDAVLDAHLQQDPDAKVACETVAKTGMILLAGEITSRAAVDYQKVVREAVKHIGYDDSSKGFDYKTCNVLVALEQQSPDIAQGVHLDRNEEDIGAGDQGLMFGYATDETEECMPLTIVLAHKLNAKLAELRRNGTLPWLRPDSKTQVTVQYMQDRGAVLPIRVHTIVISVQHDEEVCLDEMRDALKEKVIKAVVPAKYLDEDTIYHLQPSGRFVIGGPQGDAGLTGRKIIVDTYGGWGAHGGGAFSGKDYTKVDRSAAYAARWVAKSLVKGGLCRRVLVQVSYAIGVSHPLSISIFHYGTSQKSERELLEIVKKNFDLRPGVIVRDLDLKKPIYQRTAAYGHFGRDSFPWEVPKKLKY

The target in the first assay is hMAT2A (Homo sapiens (Human), UniProt P31153). Description: Phosphate Sensor Fluorescence Assay (MAT2A enzyme inhibition). The class given is biochemical. The conditions noted are these: L-methionine 500 uM, ATP 500 uM, class symbols. On the procedure:
The ability of the compound of present disclosure to inhibit MAT2A enzyme was determined using the Malachite Green or Phosphate Sensor Fluorescence Assay described below.
B. Phosphate Sensor Fluorescence Assay
MAT2A enzyme is incubated with a test compound in DMSO or DMSO and its substrates (L-methionine and ATP) in a microtiter plate. The enzymatic reaction is stopped by the addition of Working Phosphate Sensor Mixture. The plate is analyzed for fluorescence at 450 nm.
Assay Buffer: 50 mM Tris, pH 7.5/50 mM KCl/10 mM MgCl2/0.01% Brij-35/1 mM DTT/0.1% BGG/40 nM PNP/6 uM 7-MEG
L-methionine: 500 uM before the addition of Working Phosphate Sensor Mixture
ATP: 500 uM before the addition of Working Phosphate Sensor Mixture
Test compounds or DMSO were added to the appropriate well suing D300e digital dispenser. 5 μl/well of Assay Buffer was added to the wells corresponding to the negative control and 5 μl/well of MAT2A was added to all the wells except for those corresponding to the negative control. After incubating the plate at room temperature for 15 minutes, 5 μl/well of the 1 mM L-methionine/1 mM ATP mixture was added to all wells. The plate was centrifuged at 1000 rpm for 1 minute and then incubated at room temperature for 1 hour. 5 μl of the Working Phosphate Sensor Mixture was added to all wells and the plate was centrifuged at 1000 rpm for 1 minute. The plate was read for fluorescence at 450 nm after exciting at 430 nm.
Percent inhibition was calculated in Chemical and Biological Information System (CBIS), (ChemInnovation Software Inc.). Curves were fitted by CBIS as % inhibition vs. log [compound concentration] using a 4-parameter inhibition model. Fit=(A+((B−A)/(1+((C/x)^D)))) Res=(y−fit)
Regarding `O=c1nc(N2CCSC2)c2ccc(C(F)(F)F)nc2n1-c1ccccc1` [Example 346, 1-phenyl-4-(1,3-thiazolidin-3-yl)-7-(trifluoromethyl) pyrido[2,3-d]-pyrimidin-2(1H)-one], the IC50 was under 200 nM. Same read-out and setting: with `O=c1nc(N[C@H]2C[C@@](O)(C(F)(F)F)C2)c2ccc(C(F)(F)F)nc2n1-c1ccccc1Cl` [Example 299] the figure was 200 to 500 nM; with `CN(C)c1nc(=O)n(-c2ccc3[nH]cnc3c2)c2cc(Cl)ccc12` [Example 306, 1-benzimidazol-5-yl-4-(dimethylamino)-7-chlorohydroquinazolin-2-one], under 200 nM. The same measure, in the same setting: the result for `CNc1nc(=O)n(-c2cccnc2C)c2nc(C(F)(F)F)ccc12` [Example 380, 4-(methylamino)-1-(2-methylpyridin-3-yl)-7-(trifluoromethyl)pyrido[2,3-d]-pyrimidin-2(1H)-one] reads under 200 nM. On the same count and under the same terms, with `CNC(=O)CN(C)c1nc(=O)n(-c2ccccc2)c2cc(Cl)ccc12` [Example 221, 2-((7-chloro-2-oxo-1-phenyl-1,2-dihydroquinazolin-4-yl)(methyl)amino)-,N-methylacetamide] the figure was 1000 to 10000 nM; with `Cc1ccccc1-n1c(=O)nc(NCC(F)F)c2ccc(C(F)(F)F)cc21` [Example 127, 4-[(2,2-difluoroethyl)amino]-1-(2-methylphenyl)-7-(trifluoromethyl)hydro-quinazolin-2-one], under 200 nM. `O=c1nc(N2CCC2CO)c2ccc(Cl)cc2n1-c1ccccc1` (centres unmarked) [Example 186, 7-chloro-4-[2-(hydroxymethyl)azetidin-1-yl]-1-phenylhydroquinazolin-2-one]: the IC50 was under 200 nM. The same measure, in the same setting: the result for `O=c1nc(OC2CC2)c2ccc(C(F)(F)F)nc2n1-c1ccccc1Cl` [Example 422, 1-(2-chlorophenyl)-4-cyclopropoxy-7-(trifluoromethyl)pyrido[2,3-d]pyrimidin-2(1H)-one] reads under 200 nM; that for `[2H]C([2H])([2H])N(c1nc(=O)n(-c2ccccc2Cl)c2nc(C(F)(F)F)ccc12)C([2H])([2H])[2H]` [Example 339, 4-(bis(methyl-d3)amino)-1-(2-chloro-phenyl)-7-(trifluoromethyl)-pyrido[2,3-d]pyrimidin-2(1H)-one], under 200 nM.

Compound `O=c1nc(N[C@@H]2C[C@@H]2F)c2ccc(C3CC3)cc2n1-c1ccccc1Cl` [Example 413, 4-[((2S,1R)-2-fluorocyclopropyl)amino]-1-(2-chlorophenyl)-7-cyclopropyl-hydroquinazolin-2-one] registered an IC50 of under 200 nM. With `O=c1[nH]c(=O)n(-c2cccnc2)c2nc(C(F)(F)F)ccc12` [Example 359, 1-(pyridin-3-yl)-7-(trifluoromethyl)-pyrido[2,3-d]pyrimidine-2,4(1H,3H)-dione], the IC50 was under 200 nM.

Consider `CNc1nc(=O)n(-c2cccc3ncsc23)c2nc(C(F)(F)F)ccc12` [Example 381, 1-benzothiazol-7-yl-4-(methylamino)-7-(trifluoromethyl)pyrido[2,3-d]pyrimidin-2(1H)-one], for which the IC50 is under 200 nM. The compound `CNc1nc(=O)n(-c2ccn[nH]2)c2cc(Cl)ccc12` [Example 214, 7-chloro-4-(methylamino)-1-pyrazol-5-ylhydroquinazolin-2-one] showed an IC50 of under 200 nM. The same measure, in the same setting: the result for `CNc1nc(=O)n(-c2cccc(C#N)c2)c2cc(C(F)(F)F)ccc12` [Example 142, 3[4-(methylamino)-2-oxo-7-(trifluoro-methyl)hydroquinazolinyl]benzene-carbonitrile] reads under 200 nM; that for `CNc1nc(=O)n(-c2ccccc2Br)c2cc(C3CC3)ccc12` [Example 351, 1-(2-bromophenyl)-7-cyclopropyl-4-(methylamino)hydroquinazolin-2-one], under 200 nM. Take `O=c1nc(Nc2cnoc2)c2cc(Cl)c(Br)cc2n1-c1ccccc1Cl` [Example 412, 7-bromo-6-chloro-1-(2-chlorophenyl)-4-(isoxazol-4-ylamino)hydroquinazolin-2-one]: the IC50 was under 200 nM.

For the compound `O=c1[nH]c(=O)n(-c2ccccc2Cl)c2nc(C(F)(F)F)ccc12` [Example 388, 1-(2-chlorophenyl)-7-(trifluoromethyl)-1,3-dihydropyridino[2,3-d]pyrimidine-2,4-dione], the IC50 was under 200 nM.

In turn, `O=c1nc(Nc2ccccn2)c2ccc(C(F)(F)F)nc2n1-c1ccccc1Cl` [Example 256, 1-(2-chlorophenyl)-4-(2-pyridylamino)-7-(trifluoromethyl)pyrido[2,3-d]-pyrimidin-2(1H)-one] registered an IC50 of under 200 nM. The compound `O=c1nc(O)c2ccc(Cl)cc2n1-c1ccc2[nH]ncc2c1` [Example 357, 1-(1H-indazol-5-yl)-7-chloro-4-hydroxy-hydroquinazolin-2-one] returned an IC50 of 1000 to 10000 nM. `O=c1nc(N2CC[C@H](O)C2)c2ccc(C(F)(F)F)nc2n1-c1ccccc1Cl` [Example 181, (S)-1-(2-chlorophenyl)-4-(3-hydroxy-pyrrolidin-1-yl)-7-(trifluoromethyl)-pyrido[2,3-d]pyrimidin-2(1H)-one] gave an IC50 of under 200 nM. The same measure, in the same setting: the result for `O=c1nc(N2CCCC2)c2ccc(C(F)(F)F)nc2n1-c1ccccc1Cl` [Example 176, 1-(2-chlorophenyl)-4-(pyrrolictin-1-yl)-7-(trifluoromethyl)pyrido[2,3-d]pyrimidin-2(1H)-one] reads under 200 nM; that for `C[C@H](CO)Nc1nc(=O)n(-c2ccccc2Cl)c2nc(C(F)(F)F)ccc12` (atropisomer, axis not shown) [Example 323, (R)-(1Sa)-(2-chlorophenyl)-4-((1-hydroxypropan-2-yl)amino)-7-(trifluoro-methyl)pyrido-[2,3-d]pyrimidin-2(1H)-one], under 200 nM; that for `CNc1nc(=O)n(-c2cncc(O)c2)c2nc(C(F)(F)F)ccc12` [Example 390, 1-(5-hydroxypyridin-3-yl)-4-(methyl-amino)-7-(trifluoromethyl)pyrido[2,3-d]-pyrimidin-2(1H)-one], under 200 nM.

`Cc1ccncc1-n1c(=O)[nH]c(=O)c2ccc(C(F)(F)F)nc21` [Example 365, 1-(4-methylpyridin-3-yl)-7-(trifluoro-methyl)pyrido[2,3-d]pyrimidine-2,4(1H,3H)-dione]: the IC50 was under 200 nM. Same read-out and setting: with `O=c1nc(NCC(F)F)c2ccc(C(F)(F)F)cc2n1-c1ncccn1` [Example 122, 4-[(2,2-difluoroethyl)amino]-1-pyrimidin-2-yl-7-(trifluoromethyl)hydro-quinazolin-2-one] the figure was under 200 nM. The compound `O=c1nc(NCC2(O)CC2)c2ccc(C(F)(F)F)nc2n1-c1ccccc1Cl` [Example 295, 1-(2-chlorophenyl)-4-{[(hydroxycyclo-propyl)methyl]amino}-7-(trifluoro-methyl)-pyrido[2,3-d]pyrimidin-2(1H)-one] returned an IC50 of under 200 nM. Same read-out and setting: with `COc1ccccc1-n1c(=O)nc(N2CC[C@@H](O)C2)c2ccc(Cl)cc21` [Example 151, 4-((3R)-3-hydroxypyrrolidin-1-yl)-7-chloro-1-(2-methoxyphenyl)hydro-quinazolin-2-one] the figure was under 200 nM; with `CNc1nc(=O)n(-c2ccccc2)c2nc(C(F)(F)F)ccc12` [Example 184, 4-(methylamino)-1-phenyl-7-(trifluoromethyl)pyrido[2,3-d]-pyrimidin-2(1H)-one], under 200 nM; with `COc1nc(=O)n(-c2cccnc2C)c2cc(C(F)(F)F)ccc12` [Example 405], under 200 nM. On the same count and under the same terms, with `CNc1nc(=O)n(-c2ncccc2Cl)c2nc(C(F)(F)F)ccc12` [Example 261, 1-(3-chloro(2-pyridyl))-4-(methyl-amino)-7-(trifluoromethyl)pyrido[2,3-d]-pyrimidin-2(1H)-one] the figure was under 200 nM; with `O=c1nc(NCC(F)(F)F)c2ccc(C(F)(F)F)nc2n1-c1ccccc1` [Example 136, 1-phenyl-4-((2,2,2-trifluoroethyl)amino)-7-(trifluoromethyl)pyrido[2,3-d]-pyrimidin-2(1H)-one], under 200 nM.

The same assay, now with this note: L-methionine 500 uM, ATP 500 uM, numeric bound.
As for `O=c1nc(O)c2c(C3=CCNC3)cc(Cl)cc2n1-c1ccccc1` [Example 289, 7-chloro-5-(2,5-dihydro-1H-pyrrol-3-yl)-4-hydroxy-1-phenylquinazolin-2(1H)-one], the IC50 is over 10000 nM. On the same count and under the same terms, the result for `CC(C)(C)OC(=O)N1CC=C(c2cc(Cl)cc3c2c(O)nc(=O)n3-c2ccccc2)C1` [Example 290, tert-butyl 3-(7-chloro-4-hydroxy-2-oxo-1-phenyl-1,2-dihydroquinazolin-5-yl)-2,5-dihydro-1H-pyrrole-1-carboxylate] reads over 10000 nM; that for `Cc1ccccc1-n1c(=O)[nH]c(=O)c2ccc(C3CC3)cc21` [Example 375, 7-cyclopropyl-1-(o-tolyl)quinazoline-2,4(1H,3H)-dione], over 10000 nM; that for `Cc1cnc2c(=O)[nH]c(=O)n(-c3ccccc3)c2c1` [Example 193, 7-methyl-1-phenylpyrido[3,2-d]-pyrimidine-2,4(1H,3H)-dione], over 10000 nM.
